Measurements: US9062124B2, “GIP-based mixed agonists for treatment of metabolic disorders and obesity” (priority 2008, dated 2015)
Where two headings read alike, the source gives them in different places. Where a SMILES comes first, the peptide text is derived from it. Bridges are numbered along the chain shown (N, C = ends). Where no end group is shown, it is not given here. [ ]: non-standard residue; d: D form. The star is where a group is joined. PEG 40 kDa = PEG (40 kDa) covalently attached to Cys; Palmitoyl = CCCCCCCCCCCCCCCC(=O)*; Aib = CC(C)(N)C(=O)O

How the values were obtained:
Type in all cases: cell-based
glucagon receptor = molecular target: T1, glucagon receptor (Homo sapiens, UniProt P47871); assay: cAMP synthesis functional assay (firefly luciferase reporter in HEK293 cells), glucagon receptor
T1 construct: expressed in transfected cells; host or cells: HEK293
T1 sequence (P47871 26-477): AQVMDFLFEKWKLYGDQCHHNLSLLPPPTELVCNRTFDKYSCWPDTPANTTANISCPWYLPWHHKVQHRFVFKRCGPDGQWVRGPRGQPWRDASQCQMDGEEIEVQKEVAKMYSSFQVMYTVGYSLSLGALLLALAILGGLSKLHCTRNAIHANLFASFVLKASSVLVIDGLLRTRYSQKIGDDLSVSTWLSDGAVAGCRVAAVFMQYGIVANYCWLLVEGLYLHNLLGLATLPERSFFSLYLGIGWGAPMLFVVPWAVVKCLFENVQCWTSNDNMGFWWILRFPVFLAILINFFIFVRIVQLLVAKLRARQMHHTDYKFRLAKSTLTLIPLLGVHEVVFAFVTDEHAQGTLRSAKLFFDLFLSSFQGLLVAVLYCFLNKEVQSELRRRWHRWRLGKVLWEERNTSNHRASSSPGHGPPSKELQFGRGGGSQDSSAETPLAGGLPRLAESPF

GLP-1 receptor = molecular target: T2, GLP-1 receptor (Homo sapiens, UniProt P43220); assay: cAMP synthesis functional assay (firefly luciferase reporter in HEK293 cells), GLP-1 receptor
T2 construct: expressed in transfected cells; host or cells: HEK293
T2 sequence (P43220 24-463, species assumed): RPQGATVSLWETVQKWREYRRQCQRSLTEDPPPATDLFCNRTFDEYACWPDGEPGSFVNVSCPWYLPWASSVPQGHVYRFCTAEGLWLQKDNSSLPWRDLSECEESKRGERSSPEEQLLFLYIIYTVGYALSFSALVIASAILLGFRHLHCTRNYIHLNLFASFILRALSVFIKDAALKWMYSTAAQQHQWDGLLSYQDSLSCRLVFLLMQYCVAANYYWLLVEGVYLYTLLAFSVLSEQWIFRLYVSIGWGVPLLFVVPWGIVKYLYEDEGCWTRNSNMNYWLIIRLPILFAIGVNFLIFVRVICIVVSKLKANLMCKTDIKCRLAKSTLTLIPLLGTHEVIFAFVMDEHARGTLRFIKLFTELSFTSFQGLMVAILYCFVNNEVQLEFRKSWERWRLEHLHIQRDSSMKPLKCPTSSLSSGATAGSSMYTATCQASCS

GIP receptor = molecular target: T3, GIP receptor (Homo sapiens, UniProt P48546); assay: cAMP synthesis functional assay (firefly luciferase reporter in HEK293 cells), GIP receptor
T3 construct: expressed in transfected cells; host or cells: HEK293
T3 sequence (P48546 22-466): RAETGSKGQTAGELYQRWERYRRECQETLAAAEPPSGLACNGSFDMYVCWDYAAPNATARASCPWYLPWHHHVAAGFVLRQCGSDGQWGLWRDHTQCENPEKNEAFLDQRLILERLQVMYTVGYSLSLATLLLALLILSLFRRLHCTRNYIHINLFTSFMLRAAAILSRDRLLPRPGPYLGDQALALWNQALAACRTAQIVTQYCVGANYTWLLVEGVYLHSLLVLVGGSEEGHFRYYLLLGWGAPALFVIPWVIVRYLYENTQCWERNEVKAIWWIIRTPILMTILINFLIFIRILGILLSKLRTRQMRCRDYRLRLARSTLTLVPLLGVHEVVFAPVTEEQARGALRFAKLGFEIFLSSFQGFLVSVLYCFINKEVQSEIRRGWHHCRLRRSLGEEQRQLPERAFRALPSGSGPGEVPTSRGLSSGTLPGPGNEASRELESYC

[1] = Table 4, relative to the native hormone
[2] = Table 1, relative to the native hormone of the indicated receptor

| Molecule | Glucagon Receptor relative activity (glucagon receptor; [1]) | GLP-1 Receptor relative activity (GLP-1 receptor; [1]) | GIP Receptor relative activity (GIP receptor; [1]) | EC50 (GIP receptor; GIP Receptor EC50, nM, Table 4) | Glucagon Receptor relative activity (glucagon receptor; [2]) | GLP-1 Receptor relative activity (GLP-1 receptor; [2]) | GIP Receptor relative activity (GIP receptor; [2]) | EC50 (glucagon receptor; read-out: Glucagon Receptor EC50, Table 1) | EC50 (GLP-1 receptor; read-out: GLP-1 Receptor EC50, Table 1) | EC50 (GIP receptor; read-out: GIP Receptor EC50, Table 1) |
| --- | --- | --- | --- | --- | --- | --- | --- | --- | --- | --- |
| CC[C@H](C)[C@H](NC(=O)[C@H](CO)NC(=O)[C@H](Cc1ccc(O)cc1)NC(=O)[C@H](CC(=O)O)NC(=O)[C@H](CO)NC(=O)[C@@H](NC(=O)[C@H](Cc1ccccc1)NC(=O)[C@@H](NC(=O)CNC(=O)[C@H](CCC(N)=O)NC(=O)C(C)(C)NC(=O)[C@@H](N)Cc1ccc(O)cc1)[C@@H](C)O)[C@@H](C)CC)C(=O)N[C@@H](Cc1ccc(O)cc1)C(=O)N[C@@H](CC(C)C)C(=O)N[C@@H](CC(=O)O)C(=O)N[C@@H](CCCCN)C(=O)N[C@@H](CCC(N)=O)C(=O)N[C@@H](C)C(=O)N[C@@H](C)C(=O)NC(C)(C)C(=O)N[C@@H](CCC(=O)O)C(=O)N[C@@H](Cc1ccccc1)C(=O)N[C@H](C(=O)N[C@@H](CC(N)=O)C(=O)N[C@@H](Cc1c[nH]c2ccccc12)C(=O)N[C@@H](CC(C)C)C(=O)N[C@@H](CC(C)C)C(=O)N[C@@H](C)C(=O)NCC(=O)NCC(=O)N1CCC[C@H]1C(=O)N[C@@H](CO)C(=O)N[C@@H](CO)C(=O)NCC(=O)N[C@@H](C)C(=O)N1CCC[C@H]1C(=O)N1CCC[C@H]1C(=O)N1CCC[C@H]1C(=O)N[C@@H](CO)C(=O)N[C@@H](CCCCN)C(N)=O)C(C)C [mt-357] (H-Y[Aib]QGTFISDYSIYLDKQAA[Aib]EFVNWLLAGGPSSGAPPPSK-NH2; N-terminus assumed) | 260.92% | 0.86% | 206.37% | – | – | – | – | – | – | – |
| CCCCCCCCCCCCCCCC(=O)NCCCC[C@H](NC(=O)[C@H](CO)NC(=O)[C@@H]1CCCN1C(=O)[C@@H]1CCCN1C(=O)[C@@H]1CCCN1C(=O)[C@H](C)NC(=O)CNC(=O)[C@H](CO)NC(=O)[C@H](CO)NC(=O)[C@@H]1CCCN1C(=O)CNC(=O)CNC(=O)[C@H](C)NC(=O)[C@H](CC(C)C)NC(=O)[C@H](CC(C)C)NC(=O)[C@H](Cc1c[nH]c2ccccc12)NC(=O)[C@H](CC(N)=O)NC(=O)[C@@H](NC(=O)[C@H](Cc1ccccc1)NC(=O)[C@H](CCC(=O)O)NC(=O)C(C)(C)NC(=O)[C@H](C)NC(=O)[C@H](C)NC(=O)[C@H](CCC(N)=O)NC(=O)[C@H](CCCCN)NC(=O)[C@H](CC(=O)O)NC(=O)[C@H](CC(C)C)NC(=O)[C@H](Cc1ccc(O)cc1)NC(=O)[C@@H](NC(=O)[C@H](CO)NC(=O)[C@H](Cc1ccc(O)cc1)NC(=O)[C@H](CC(=O)O)NC(=O)[C@H](CO)NC(=O)[C@@H](NC(=O)[C@H](Cc1ccccc1)NC(=O)[C@@H](NC(=O)CNC(=O)[C@H](CCC(N)=O)NC(=O)C(C)(C)NC(=O)[C@@H](N)Cc1ccc(O)cc1)[C@@H](C)O)[C@@H](C)CC)[C@@H](C)CC)C(C)C)C(N)=O [mt-358] (H-Y[Aib]QGTFISDYSIYLDKQAA[Aib]EFVNWLLAGGPSSGAPPPSK(Palmitoyl)-NH2; N-terminus assumed) | 1266.00% | 13.04% | 305.62% | 0.0045 nM | – | – | – | – | – | – |
| Y[Aib]EGTFISDYSIAMDKIHQQDFVNWLLAQKGKKNWLKHNITQ-NH2 [mt-100] | – | – | – | – | 0.01% | 0.01% | 306.25% | – | – | – |
| Y[Aib]EGTFTSDYSIYLDEQAAKEFVNWLLAGKGKKNWLKHNITQC-NH2 (lactam 16-20) [mt-206] | – | – | – | – | 0.01% | 32.63% | 13.04% | – | – | – |
| mt-202: glucagon analog peptide, C-terminal amide (Y[Aib]QGTFVSDYSIYLDEQAAKEFVNWLLAGGPSSGAPPPSC(PEG 40 kDa)-NH2; lactam 16-20) | – | – | – | – | 2.84% | 0.18% | 1.32% | 2.36 nM | 15.7 nM | 2.2 nM |
